This assay concerns the target T1, human PPAR α (Homo sapiens, UniProt Q07869).
T1 construct: expressed in transfected cells; host or cells: HepG2 (ATCC HB-8065) or 293T cells (ATCC CRL-1573)
T1 sequence (Q07869 239-466 limits assumed): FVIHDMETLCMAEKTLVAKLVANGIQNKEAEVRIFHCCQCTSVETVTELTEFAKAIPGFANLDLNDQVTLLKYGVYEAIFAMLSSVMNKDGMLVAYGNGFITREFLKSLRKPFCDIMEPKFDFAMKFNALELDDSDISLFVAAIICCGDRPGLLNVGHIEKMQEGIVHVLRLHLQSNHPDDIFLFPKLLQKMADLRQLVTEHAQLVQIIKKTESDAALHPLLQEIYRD
In words: Exogeneous PPAR α agonist assay (GAL4 DNA binding domain/PPAR α ligand binding domain, luciferase) in 293T cells. The format is cell-based. Set-up: scale not given here. Particulars: 25 μM compound, 48 hours, luciferase activity increase relative to the control. How it is done:
Step 1) Exogeneous PPAR α Agonist Assay
Cross-activation assay of the compounds of Examples 1 to 134 against human PPAR α was carried out using a DNA construct of PPAR α including its ligand binding domain and GAL4 DNA binding domain (Sher et al., Biochemistry 32, 5598-5604, 1993) to analyze whether any of the compounds binds to the ligand binding domain of PPAR α expressed by the construct to affect the PPAR α activity. When the GAL4 DNA binding domainm which is fused with PPAR α ligand binding domain, binds to UAS (upstream activation sequence) of firefly-luciferase, the luciferase is expressed. Therefore, the effect of each of the compounds of Examples on PPAR α activation can be evaluated by analyzing the activation of luciferase.
Specifically, 2×10^4 of HepG2 (ATCC HB-8065) or 293T cells (ATCC CRL-1573) were aliquotted into each well of a 96-well plate and cultured for overnight at 37° C. in a CO2 incubator (culture condition: DMEM, 10% FBS and 1% antibiotics).
The transformation of PPAR α DNA was traced as follows. First, a mixture of the following ingredients in amounts per well; Solution A (Promega) containing 50 ng of full length human PPAR α DNA, 50 ng of firefly-luciferase construct, 5 ng of Renilla-luciferase construct, 1.0 μl of PLUS™ reagent, and 8.3 μl of a serum-free medium containing no antibiotics; was prepared and kept at room temperature for 15 min. Solution B, which contained 0.5 μl of Lipofectamine™ reagent and 9.5 μl of serum-free medium without antibiotics per well, and Solution C, which contained 50 μl of serum-free medium per well), were prepared. Solutions A, B and C were mixed together to prepare lipofectamin-DNA complex, and the mixture was kept at room temperature for 15 min. Single layer of cells on each well of a 96-well plate were washed with serum-free DMEM, 70 μl of lipofectamine-DNA complex prepared above was added thereto, the plate was incubated at 37° C. in a 5% CO2 incubator for 3 hours to transform the cells, and […] of a diluted solution of each of the compounds of Examples 1 to 134 per well was added to each well to a final concentration 25 μM, and incubated at 37° C. in a CO2 incubator for 48 hours. Then, the medium was removed, 50 μl of passive lysis buffer (Promega) was added thereto, and the plate was shook at room temperature for 20 min to lysis cells. 40 μl of Luciferase Assay reagent of Dual Luciferase Kit […] per 20 μl of cell lysis buffer was added to the plate, followed by reacting at 20° C. for 8 seconds, and 40 μl of Stop & Glo reagent (Promega) as a stop solution was added thereto to quench the reaction. The luminescence intensities of F-luciferase and R-luciferase were measured with MicroLumat Plus (Berthord Technology).
As to `Cc1oc(-c2cccs2)nc1CCOc1ccc(CN(CC(=O)O)S(=O)(=O)N(C)C)cc1` [Example 104, [N—(N,N-dimethylamino)sulfonyl-N-[4-[2-[2-(thiophen-2-yl)-5-methyloxazol-4-yl]ethoxy]benzyl]amino]acetic acid], the “Activity at 25 μM Step 1 293T cell” value is recorded as 1. With `Cc1ccc(-c2nc(CCOc3cccc(CN(CC(=O)O)S(=O)(=O)N4CCOCC4)c3)c(C)o2)cc1` [Example 86, [N-(morpholinyl)sulfonyl-N-[3-[2-[2-(4-methylphenyl)-5-methyloxazol-4-yl]ethoxy]benzyl]amino]acetic acid], the “Activity at 25 μM Step 1 293T cell” value came to 2. For the molecule `Cc1oc(-c2ccc(C(F)(F)F)cc2)nc1CCOc1cccc(CN(CC(=O)O)S(=O)(=O)N2CCCC2)c1` [Example 85, [N-(pyrrolidinyl)sulfonyl-N-[3-[2-[2-(4-trifluoromethylphenyl)-5-methyloxazol-4-yl]ethoxy]benzyl]amino]acetic acid], the “Activity at 25 μM Step 1 293T cell” value came out at 1. In the case of `Cc1oc(-c2ccc(C(F)(F)F)cc2)nc1COc1cccc(CN(CC(=O)O)S(=O)(=O)N2CCCc3ccccc32)c1` [Example 36, [N-(1,2,3,4-tetraquinolinyl)sulfonyl-N-[3-[[2-(4-trifluoromethylphenyl)-5-methyloxazol-4-yl]methoxy]benzyl]amino]acetic acid] it was 2; in that of `Cc1oc(-c2ccc(C(F)(F)F)cc2)nc1COc1ccc(CN(CC(=O)O)S(=O)(=O)N(C)c2ccccc2)cc1` [Example 47, [N—[(N-methyl-N-phenyl)amino]sulfonyl-N-[4-[[2-(4-trifluoromethylphenyl)-5-methyloxazol-4-yl]methoxy]benzyl]amino]acetic acid], 2; in that of `Cc1oc(-c2ccc(C(F)(F)F)cc2)nc1CCOc1cccc(CN(CC(=O)O)S(=O)(=O)N2CCOCC2)c1` [Example 87, [N-(morpholinyl)sulfonyl-N-[3-[2-[2-(4-trifluoromethylphenyl)-5-methyloxazol-4-yl]ethoxy]benzyl]amino]acetic acid], 1. On to `Cc1oc(-c2ccc(C(F)(F)F)cc2)nc1COc1cccc(CN(CC(=O)O)S(=O)(=O)N2CCN(C)CC2)c1` [Example 27, [N-(4-methyl-1-piperazinyl)sulfonyl-N-[3-[[2-(4-trifluoromethylphenyl)-5-methyloxazol-4-yl]methoxy]benzyl]amino]acetic acid], for which the “Activity at 25 μM Step 1 293T cell” value was determined as 1. As to `Cc1ccc(-c2nc(CCOc3ccc(CN(CC(=O)O)S(=O)(=O)N(C)C)cc3)c(C)o2)cc1` [Example 99, [N—(N,N-dimethylamino)sulfonyl-N-[4-[2-[2-(4-methylphenyl)-5-methyloxazol-4-yl]ethoxy]benzyl]amino]acetic acid], the “Activity at 25 μM Step 1 293T cell” value was determined as 2. In the case of `Cc1ccc(-c2nc(COc3cccc(CN(CC(=O)O)S(=O)(=O)N(C)C)c3)c(C)o2)cc1` [Example 4, [N—[(N,N-dimethylamino)sulfonyl]-N-[3-[[2-(4-methylphenyl)-5-methyloxazol-4-yl]methoxy]benzyl]amino]acetic acid] it was 3; in that of `Cc1oc(-c2ccccc2)nc1COc1cccc(CN(CC(=O)O)S(=O)(=O)N2CCCc3ccccc32)c1` [Example 34, [N-(1,2,3,4-tetrahydroquinolinyl)sulfonyl-N-[3-[(2-phenyl-5-methyloxazol-4-yl)methoxy]benzyl]amino]acetic acid], 2. Turning to `Cc1ccc(-c2nc(COc3cccc(CN(CC(=O)O)S(=O)(=O)N(C)c4ccccc4)c3)c(C)o2)cc1` [Example 15, [N—[(N-methyl-N-phenyl)amino]sulfonyl-N-[3-[[2-(4-methylphenyl)-5-methyloxazol-4-yl]methoxy]benzyl]amino]acetic acid], the “Activity at 25 μM Step 1 293T cell” value amounted to 2. In the case of `Cc1ccc(-c2nc(COc3ccc(CN(CC(=O)O)S(=O)(=O)N(C)c4ccccc4)cc3)c(C)o2)cc1` [Example 46, [N—[(N-methyl-N-phenyl)amino]sulfonyl-N-[4-[[2-(4-methylphenyl)-5-methyloxazol-4-yl]methoxy]benzyl]amino]acetic acid] it was 2. In the case of `Cc1oc(-c2ccc(C(F)(F)F)cc2)nc1COc1cccc(CN(CC(=O)O)S(=O)(=O)N2CCc3ccccc32)c1` [Example 32, [N-(indolinyl)sulfonyl-N-[3-[[2-(4-trifluoromethylphenyl)-5-methyloxazol-4-yl]methoxy]benzyl]amino]acetic acid] it was 2. With `Cc1oc(-c2ccccc2)nc1CCOc1ccc(CN(CC(=O)O)S(=O)(=O)N2CCc3ccccc32)cc1` [Example 116] the figure was 2; with `Cc1ccc(-c2nc(COc3ccc(CN(CC(=O)O)S(=O)(=O)N4CCN(C)CC4)cc3)c(C)o2)cc1` [Example 43, [N-(4-methyl-1-piperazinyl)sulfonyl-N-[4-[[2-(4-methylphenyl)-5-methyloxazol-4-yl]methoxy]benzyl]amino]acetic acid], 2. `Cc1ccc(-c2nc(COc3ccc(CN(CC(=O)O)S(=O)(=O)N4CCOCC4)cc3)c(C)o2)cc1` [Example 44, [N-(morpholinyl)sulfonyl-N-[4-[[2-(4-methylphenyl)-5-methyloxazol-4-yl]methoxy]benzyl]amino]acetic acid]: the “Activity at 25 μM Step 1 293T cell” value worked out at 3. In the case of `Cc1oc(-c2ccc(C(F)(F)F)cc2)nc1COc1cccc(CN(CC(=O)O)S(=O)(=O)N(C)c2ccc(Cl)cc2)c1` [Example 20, [N—[[N-methyl-N-(4-chlorophenyl)]amino]sulfonyl-N-[3-[[2-(4-trifluoromethylphenyl)-5-methyloxazol-4-yl]methoxy]benzyl]amino]acetic acid] it was 2; in that of `Cc1oc(-c2ccccc2)nc1COc1ccc(CN(CC(=O)O)S(=O)(=O)N(C)C)cc1` [Example 38, [N—(N,N-dimethylamino)sulfonyl-N-[4-[(2-phenyl-5-methyloxazol-4-yl)methoxy]benzyl]amino]acetic acid], 2; in that of `Cc1ccc(-c2nc(COc3cccc(CN(CC(=O)O)S(=O)(=O)N4CCCc5ccccc54)c3)c(C)o2)cc1` [Example 35, [N-(1,2,3,4-tetrahydroquinolinyl)sulfonyl-N-[3-[[2-(4-methylphenyl)-5-methyloxazol-4-yl]methoxy]benzyl]amino]acetic acid], 2. In the case of `Cc1oc(-c2ccc(C(F)(F)F)cc2)nc1CCOc1cccc(CN(CC(=O)O)S(=O)(=O)N2CCN(C)CC2)c1` [Example 89, [N-(4-methyl-1-piperazinyl)sulfonyl-N-[3-[2-[2-(4-trifluoromethylphenyl)-5-methyloxazol-4-yl]ethoxy]benzyl]amino]acetic acid] it was 1; in that of `Cc1oc(-c2ccccc2)nc1COc1ccc(CN(CC(=O)O)S(=O)(=O)N(C)c2ccc(Cl)cc2)cc1` [Example 49, [N—[[N-methyl-N-(4-chlorophenyl)]amino]sulfonyl-N-[4-[(2-phenyl-5-methyloxazol-4-yl)methoxy]benzyl]amino]acetic acid], 3.

The record behind these values is patent US20070254882A1, “Sulfamide Derivatives and Pharmaceutical Composition for Upregulation of Lipid Metabolism Comprising Same” (CRYSTAL GENOMICS, INC., priority 2004, published 2007).
